From PMC4621027, “Hydroxyethylamine Based Phthalimides as New Class of Plasmepsin Hits: Design, Synthesis and Antimalarial Evaluation” (PLoS ONE, 2015)
Where two headings read alike, the source gives them in different places.

Tests used:
P. falciparum 3D7 = assay: SYBR green I-based fluorescence parasite growth assay, CQ sensitive strain; format: cell-based, Plasmodium falciparum; settings: read-out: IC50 values ± SE, growth of P. falciparum (3D7)
Procedure: (§1) For compound screening, SYBR green I-based fluorescence assay was setup as described in literature. Sorbitol synchronized parasites were incubated under normal culture conditions at 2% hematocrit and 1% parasitemia in the absence or presence of increasing concentrations of the compounds. Chloroquine (CQ) was used as positive control, while 0.4% DMSO was used as the negative control.
(§2) We have studied the antimalarial effect of all the listed molecules in […] culture conditions in order to identify a putative lead structure for pharmacological applications.

[1] = test system: CQ resistant strain (7GB) of P. falciparum; assay: Antiplasmodial activity against CQ resistant strain; format: cell-based; settings: Plasmodium falciparum
Procedure: as §1, §2

human erythrocytes = assay: In vitro hemolytic activity; format: cell-based; settings: 3.125 to 100 μg/mL, 37°C, 1 h
Procedure: In vitro hemolytic activity of all synthesized compounds was performed as per reported protocol with slight modifications. In brief, human erythrocytes were collected from Rotary Blood Bank (New Delhi, India) and suspended in phosphate buffer saline (PBS). The suspension (2% hemotocrit) was incubated with different concentrations (3.125 to 100 μg/mL) of the entire compound series at 37°C for 1 h. After 1 h, erythrocytes were pelleted at 3000 g for 10 min (Remi, R-8C/BL) at 4°C. The supernatant was collected and OD450 was determined spectrophotometrically (Biotek, ELx800 UV spectrophotometer) using PBS as a negative control and Triton X-100 for completely lysing the cells. The percent hemolysis was calculated using the following formula: Percent hemolysis = […]. The percent hemolysis was plotted against concentration of compounds for determining the dose cytotoxic to erythrocytes.

[2] = MTT-colorimetric cytotoxicity assay; format: cell-based; settings: human, MCF-7 cells, read-out: IC50, cytotoxicity on MCF7 cell line
Procedure: (§3) Phthalimides were serially diluted in DMSO in a final concentration of 100, 25 and 6.25 μg mL^-1 and evaluated for their % cytotoxicity by using MTT-colorimetric assay on MCF-7 cell line. Cell lines were maintained in RPMI-1640 (Hi-Media, Mumbai) medium supplemented with heat inactivated FCS (10% v/v) and 100 U/mL of streptomycin and were cultured in a humidified 5% CO2 atmosphere at 37°C. 100 μL (~2×10^5) of cells were seeded into wells (per well) on a 96-well plate (Nunc, Maxi Sorp) and incubated for 16 h for adherence. After 16 h, media was aspirated from the wells and the cells were washed with RPMI-1640 without FCS. 75 μL of each compound and control was added to separate wells containing cell lines and incubated at 37°C in humidified 5% CO2 atmosphere for 4 h. After 4 h, media containing the compounds was replaced with 200 μL of normal RPMI-1640 and cells were further incubated for 48 h under same conditions. After 48 h media was replaced by 200 μL of MTT (3-(4, 5-dimethylthiazol-2-yl)-2, 5-diphenyltetrazolium bromide, 0.5 mg/mL of RPMI-1640) and further incubated for 2 h. The formazan crystals were formed and suspended in 100 μL iso-propanol containing 0.06 M HCl and 0.5% SDS. Aliquots were drawn from each well and colour intensity was measured spectrophotometrically in an ELISA plate reader (Biotek, ELx800) at 540 nm. Untreated cells were taken as control with 100% viability and cells without addition of MTT were used as blank. The relative cell viability (%) compared to control cells was calculated by [abs] sample/ [abs] control × 100.

MCF-7 cell line = assay: MTT-colorimetric cytotoxicity assay; format: cell-based; settings: 100, 25 and 6.25 μg mL^-1
Procedure: as §3

plasmepsin 4 = target: T1, plasmepsin 4 (Plasmodium falciparum, UniProt Q8IM16); assay: Inhibition of plasmepsin 4, chromogenic substrate cleavage assay; format: biochemical; settings: pH 4.5; fit to competitive inhibition scheme
T1 construct: preincubated at the assay pH for 3 minutes to allow conversion from the proenzyme to the mature enzyme form; made in house
Procedure: (§4) Synthetic compounds were dissolved in DMSO to make stock solutions at concentrations around 100 μM. Dilutions from these stocks were made to obtain solutions to use for studying inhibition of the plasmepsins 2 and 4 from P. falciparum. Assays of enzymatic activity were typically done using 50 micromolar substrate and 50 nanomolar enzyme at pH 4.5. The protein samples were preincubated at the assay pH for 3 minutes to allow conversion from the proenzyme to the mature enzyme form, then immediately mixed with inhibitor solutions and incubated for a further 5 minutes to permit the enzyme-inhibitor complex to form. Following this, the samples were mixed with samples of the substrate to yield a 50 μM substrate concentration in the final assay solution and immediately placed in a recording spectrophotometer to follow the reaction. The cleavage of the chromogenic substrate yields a shift in absorbance that can be quantified by the decrease in absorbance at 300 nm. Compounds were mixed with the enzymes at concentrations ranging from 10 to 50 μM range and the effect on enzyme activity studied in duplicate assays.
(§5) A second inhibitor concentration was chosen that would yield approximately 30–35% inhibition and a third inhibitor concentration was chosen to yield approximately 65–70% inhibition. The three resulting curves of initial velocity versus substrate concentration were fit simultaneously to the competitive inhibition scheme; this yields values of Vmax, Km, and Ki.
(§6) Plasmepsins, a family of aspartic proteases of malaria parasite, are known to participate in a wide variety of cellular processes essential for parasite survival. […] Similarly, plasmepsin 4 from P. falciparum can be prepared and activated. Catalytic activity of the plasmepsins can be studied by following the change in absorbance at 300 nm as cleavage occur between a Phe and a nitroPhe in the synthetic substrate, Lys-Pro-Ile-Glu-Phe-NO2Phe-Arg-Leu. The compounds listed in Tables 1, 2 and 3 were assayed for inhibition by preincubating with differnt concentrations of the compound with equal aliquots of either plasmepsin 2 or 4 followed by mixing with the assay substrate.

plasmepsin 2 = target: T2, plasmepsin 2 (Plasmodium falciparum, UniProt P46925); assay: Inhibition of plasmepsin 2, chromogenic substrate cleavage assay; format: biochemical; settings: pH 4.5; fit to competitive inhibition scheme
T2 construct: preincubated at the assay pH for 3 minutes to allow conversion from the proenzyme to the mature enzyme form; made in house
Procedure: as §4, §5, §6

[3] = Plasmodium falciparum, CQ sensitive strain 3D7, 48 h incubation
[4] = values in brackets, 48 h incubation, read-out: IC50 values ± SE, CQ resistant strain (7GB) (converted)

T2 sequence (P46925 125-453): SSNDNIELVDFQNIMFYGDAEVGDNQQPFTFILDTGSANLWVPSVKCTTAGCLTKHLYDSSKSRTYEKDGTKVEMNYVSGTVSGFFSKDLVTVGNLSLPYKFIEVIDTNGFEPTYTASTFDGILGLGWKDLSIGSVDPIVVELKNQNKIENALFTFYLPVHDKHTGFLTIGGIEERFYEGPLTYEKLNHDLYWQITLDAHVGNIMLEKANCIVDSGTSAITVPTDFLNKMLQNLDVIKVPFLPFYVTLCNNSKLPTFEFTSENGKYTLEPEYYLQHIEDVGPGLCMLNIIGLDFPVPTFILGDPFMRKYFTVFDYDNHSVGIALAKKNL
T1 sequence (Q8IM16 122-449): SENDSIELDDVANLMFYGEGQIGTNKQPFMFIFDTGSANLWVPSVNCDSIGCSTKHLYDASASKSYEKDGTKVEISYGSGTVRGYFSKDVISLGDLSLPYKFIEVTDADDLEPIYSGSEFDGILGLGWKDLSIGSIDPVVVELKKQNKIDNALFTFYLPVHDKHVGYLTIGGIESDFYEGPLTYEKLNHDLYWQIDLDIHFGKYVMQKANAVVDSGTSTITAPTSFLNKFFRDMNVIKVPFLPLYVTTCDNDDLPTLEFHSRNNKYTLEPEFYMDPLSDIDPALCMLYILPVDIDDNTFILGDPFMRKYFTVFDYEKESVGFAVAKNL

C[C@@H]1CC[C@H]2[C@@H](C)C(=O)O[C@@H]3O[C@@]4(C)CC[C@@H]1[C@]32OO4 [ART, reference compound]
IC50 (P. falciparum 3D7; CQ sensitive strain 3D7, 48 h incubation): 0.021 µM

CCN(CC)CCCC(C)Nc1ccnc2cc(Cl)ccc12 (centres unmarked) [CQ, Chloroquine, reference compound]
IC50 (P. falciparum 3D7; Plasmodium falciparum, 3D7, 48 h): 0.059 µM
IC50 ([1]; 48 h, read-out: IC50 values ± SE, CQ resistant strain (7GB)): 1.32 µM

CN1CCN(C[C@H](O)[C@@H](Cc2ccccc2)NC(=O)OC(C)(C)C)CC1 [Compound 5a]
hemolysis of human erythrocytes (in words) (human erythrocytes): least hemotoxic
IC50 at 4 h [2]: > 8 µM
IC50 (P. falciparum 3D7; [3]): 5.88 ± 0.23 µM

CCN1CCN(C[C@H](O)[C@@H](Cc2ccccc2)NC(=O)OC(C)(C)C)CC1 [Compound 5b]
melting point: 89 to 91 °C
hemolysis of human erythrocytes (in words) (human erythrocytes): highest hemotoxicity
IC50 (P. falciparum 3D7; [3]): 5.4 ± 0.06 µM

CC(C)(C)OC(=O)N[C@H](Cc1ccccc1)[C@@H](O)CN1CCN(Cc2ccc(F)cc2)CC1 [Compound 5c]
melting point: 108 to 110 °C
IC50 at 4 h [2]: > 8 µM
IC50 (P. falciparum 3D7; [3]): 2.56 ± 0.06 µM

CC(C)(C)OC(=O)N[C@H](Cc1ccccc1)[C@@H](O)CN1CCN(Cc2ccc(Br)cc2)CC1 [Compound 5d]
melting point: 111 to 114 °C
IC50 (P. falciparum 3D7; [3]): 4.9 ± 0.01 µM

CC(C)(C)OC(=O)N[C@H](Cc1ccccc1)[C@@H](O)CN1CCN(C[C@H](O)[C@@H](Cc2ccccc2)NC(=O)OC(C)(C)C)CC1 [Compound 5f]
cytotoxic effect on MCF7 cell line (in words) (MCF-7 cell line): maximal toxicity
IC50 (P. falciparum 3D7; [3]): 3.11 ± 0.11 µM

CC(C)C[C@@H](C(=O)N[C@H](Cc1ccccc1)[C@@H](O)CN1CCN(C)CC1)N1C(=O)c2ccccc2C1=O [Compound 6a]
melting point: 141 to 143 °C
IC50 (P. falciparum 3D7; [3]): 4.61 ± 0.06 µM

CN1CCN(C[C@H](O)[C@@H](Cc2ccccc2)NC(=O)[C@H](Cc2ccccc2)N2C(=O)c3ccccc3C2=O)CC1 [Compound 6b]
melting point: 101 to 103 °C
IC50 (P. falciparum 3D7; [3]): 3.41 ± 0.03 µM

CC(C)[C@@H](C(=O)N[C@H](Cc1ccccc1)[C@@H](O)CN1CCN(C)CC1)N1C(=O)c2ccccc2C1=O [Compound 6c]
melting point: 91 to 93 °C
IC50 (P. falciparum 3D7; [3]): 4.58 ± 0.04 µM

CC[C@@H](C)[C@@H](C(=O)N[C@H](Cc1ccccc1)[C@@H](O)CN1CCN(C)CC1)N1C(=O)c2ccccc2C1=O [Compound 6d]
melting point: 104 to 106 °C
hemolysis of human erythrocytes (in words) (human erythrocytes): lower hemolysis
IC50 (P. falciparum 3D7; [3]): 6.33 ± 0.13 µM

CCN1CCN(C[C@H](O)[C@@H](Cc2ccccc2)NC(=O)[C@H](CC(C)C)N2C(=O)c3ccccc3C2=O)CC1 [Compound 6e]
melting point: 117 to 119 °C
IC50 (P. falciparum 3D7; [3]): 2.13 ± 0.02 µM

CCN1CCN(C[C@H](O)[C@@H](Cc2ccccc2)NC(=O)[C@H](Cc2ccccc2)N2C(=O)c3ccccc3C2=O)CC1 [Compound 6f]
melting point: 108 to 111 °C
IC50 (P. falciparum 3D7; [3]): 2.96 ± 0.43 µM

CCN1CCN(C[C@H](O)[C@@H](Cc2ccccc2)NC(=O)[C@H](C(C)C)N2C(=O)c3ccccc3C2=O)CC1 [Compound 6g]
melting point: 108 to 111 °C
IC50 (P. falciparum 3D7; [3]): 3.8 ± 0.03 µM

CC(C)C[C@@H](C(=O)N[C@H](Cc1ccccc1)[C@@H](O)CN1CCN(Cc2ccc(F)cc2)CC1)N1C(=O)c2ccccc2C1=O [Compound 6i]
melting point: 134 to 136 °C
IC50 (P. falciparum 3D7; [3]): 5.27 ± 0.06 µM

O=C(N[C@H](Cc1ccccc1)[C@@H](O)CN1CCN(Cc2ccc(F)cc2)CC1)[C@H](Cc1ccccc1)N1C(=O)c2ccccc2C1=O [Compound 6j]
melting point: 121 to 123 °C
hemolysis of human erythrocytes (in words) (human erythrocytes): lower hemolysis
cytotoxic effect on MCF7 cell line (in words) (MCF-7 cell line): low cytotoxic effect
IC50 (P. falciparum 3D7; [3]): 1.33 ± 0.04 µM
IC50 [1, 4]: 3.6 µM

CC(C)[C@@H](C(=O)N[C@H](Cc1ccccc1)[C@@H](O)CN1CCN(Cc2ccc(F)cc2)CC1)N1C(=O)c2ccccc2C1=O [Compound 6k]
melting point: 137 to 139 °C
IC50 at 4 h [2]: > 8 µM
IC50 (P. falciparum 3D7; [3]): 4.59 ± 0.07 µM

CC(C)C[C@@H](C(=O)N[C@H](Cc1ccccc1)[C@@H](O)CN1CCN(Cc2ccc(Br)cc2)CC1)N1C(=O)c2ccccc2C1=O [Compound 6m]
melting point: 143 to 145 °C
IC50 at 4 h [2]: > 8 µM
IC50 (P. falciparum 3D7; [3]): 6.96 ± 0.1 µM

O=C(N[C@H](Cc1ccccc1)[C@@H](O)CN1CCN(Cc2ccc(Br)cc2)CC1)[C@H](Cc1ccccc1)N1C(=O)c2ccccc2C1=O [Compound 6n]
melting point: 131 to 133 °C
IC50 (P. falciparum 3D7; [3]): 3.14 ± 0.02 µM

CC(C)[C@@H](C(=O)N[C@H](Cc1ccccc1)[C@@H](O)CN1CCN(Cc2ccc(Br)cc2)CC1)N1C(=O)c2ccccc2C1=O [Compound 6o]
cytotoxic effect on MCF7 cell line (in words) (MCF-7 cell line): low cytotoxic effect
IC50 (P. falciparum 3D7; [3]): 1.25 ± 0.08 µM
IC50 [1, 4]: 3.01 µM

O=C(N[C@H](Cc1ccccc1)[C@@H](O)CN1CCC(N2CCCCC2)CC1)[C@H](Cc1ccccc1)N1C(=O)c2ccccc2C1=O [Compound 6q]
melting point: 134 to 136 °C
IC50 at 4 h [2]: > 8 µM
IC50 (P. falciparum 3D7; [3]): 8.54 ± 0.04 µM

CC(C)C[C@@H](C(=O)N[C@H](Cc1ccccc1)[C@@H](O)CN1CCN(C[C@H](O)[C@@H](Cc2ccccc2)NC(=O)[C@H](CC(C)C)N2C(=O)c3ccccc3C2=O)CC1)N1C(=O)c2ccccc2C1=O [Compound 6r]
Ki (plasmepsin 4): > 50 µM
melting point: 141 to 143 °C
hemolysis of human erythrocytes (in words) (human erythrocytes): least hemotoxic
Ki (plasmepsin 2): 1100 ± 100 nM
IC50 (P. falciparum 3D7; [3]): 5.12 ± 0.43 µM

CC(C)[C@@H](C(=O)N[C@H](Cc1ccccc1)[C@@H](O)CN1CCN(C[C@H](O)[C@@H](Cc2ccccc2)NC(=O)[C@H](C(C)C)N2C(=O)c3ccccc3C2=O)CC1)N1C(=O)c2ccccc2C1=O [Compound 6t]
Ki (plasmepsin 4): 3.3 ± 0.3 µM
melting point: 123 to 125 °C
Ki (plasmepsin 2): > 20000 nM
IC50 (P. falciparum 3D7; [3]): 7.28 ± 0.43 µM

CCC(C)[C@@H](C(=O)N[C@H](Cc1ccccc1)[C@@H](O)CN1CCN(C[C@H](O)[C@@H](Cc2ccccc2)NC(=O)[C@H](C(C)CC)N2C(=O)c3ccccc3C2=O)CC1)N1C(=O)c2ccccc2C1=O (some centres unmarked) [Compound 6u]
Ki (plasmepsin 4): > 50 µM
melting point: 131 to 134 °C
Ki (plasmepsin 2): 990 ± 100 nM
IC50 (P. falciparum 3D7; [3]): 3.24 ± 0.06 µM
